Results published in US20170258747A1, “GLUTAMINE ENRICHED NUTRITIONAL COMPOSITION FOR PRETERM INFANTS” (N.V. Nutricia, priority 2012, published 2017).

Legend:
VLBL infants = settings: supplementation with glutamine in VLBL infants; cited from earlier work
[1] = system: glutamine fed preterm group; test: fMRI neuronal activation later in life; assay type: in vivo, human
Text: The improved brain development established at school age is indicative for improvement in neurocognitive functioning, behavioral and/or motional development, improving neuronal activation during interference task or during visuo-spatial working memory task, improvement of visuomotor skills (caterpillar-task).

[2] = system: very preterm and/or VLBW children; test: Brain cortical volumes by MRI at school age after enteral glutamine supplementation, days 3-30 of life; assay type: in vivo, human
Procedure: (§1) A randomized, placebo controlled clinical trial was performed. For a detailed protocol of the study, see van den Berg et al, 2004, Glutamine-enriched enteral nutrition in very low birth weight infants. Design of a double-blind randomised controlled trial [ISRCTN73254583], BMC Pediatrics 4:17.
(§2) In short: Infants with a gestational age <32 weeks and/or birth weight <1500 g were enrolled. In total 52 very preterm and/or VLBW children, which had taken part in a randomized controlled trial on enteral glutamine supplementation between day 3 and 30 of life, participated in this follow up study at the mean age of 8.6 years (SD=0.3 years). 30 infants were in the control group and 22 in the glutamine supplementation group. Also comparisons were made with a control group (n=52) of term born infants.
(§3) The glutamine nutritional supplement was in powder form and contained 82 wt. % L-glutamine in total and 18 wt. % glucose (nitrogen 15.5 wt/wt %; 371 kcal/100 g), whereas the isonitrogenous control powder contained 100 wt. % L-alanine (nitrogen 15.7 wt/wt %, 435 kcal/100 g). The two powders were indistinguishable by appearance, colour and smell. Between days 3 and 30 of life, supplementation was administered in increasing doses to a maximum of 0.3 g/kg glutamine per day in the glutamine group. Initially, the supplementation dose was based on birth weight. After 2 weeks the dose was adjusted to actual body weight. Two members of the nursing staff daily added supplementation to breast milk or to preterm formula (Nenatal®, Nutricia Nederland B.V., Zoetermeer, The Netherlands), according to the parents' choice. Per 100 ml, Nenatal® provides 78 kcal, 2.1 g protein (casein-whey protein weight ratio 40:60), 4.4 g fat and 7.5 g carbohydrate. […] Protocol guidelines for the introduction of parenteral and enteral nutrition are disclosed in van den Berg et al., 2004.
(§4) All statistical analyses are performed on an intention to treat basis. In addition, alternative per protocol analyses are performed, excluding all patients who are not treated according to protocol, defined as more than 3 consecutive days or more than a total of 5 days on minimal enteral feeding or without supplementation. A p value<0.05 is considered significant (two-tailed). SPSS 9.0 (SPSS Inc., Chicago, Ill., USA) and STAT 7.0 (Stat-Corp LP, College Station, Tex., USA) are used for data analysis. A p value of 0.1 or below is considered to represent a realistic effect, a trend. Due to the small size of the groups also the effect size is taken into account. An effect size above 0.4 is considered to represent a trend.
Brain cortical volumes were determined by MRI and calculated using FSL software “FAST” and corrected for age at MM scan, gender and body weight for gestational age. […] This was the case for intracranial volume, grey matter, white matter and cerebellum volume.

[3] = system: very preterm and/or VLBW children; test: Intellectual development, short form of WISC-III; assay type: in vivo, human; settings: mean, sd 17.7, n=30; scores normalised with a mean of 100 (SD 15); p=0.12 versus control
Procedure: Intellectual development was measured in the same group of infants as example 1 by a short form of the Wechsler Intelligence Scale for Children-III (WISC-III), including the subtests Vocabulary and Block Design. […]. Both subtests correlate strongly (r 0.90) with full-scale intelligence quotient (FSIQ). Scores on this test were normalised with a mean of 100 (SD 15). There was a trend (p=0.12 when adjusted for gestational age and socioeconomic status) in improved IQ (WISC-III FSIQ being 102, sd 17.7, n=30) in the glutamine group compared to the control group (WISC-III FSIQ 93.6 sd 17.2 n=34).

VLBW infants [4] = settings: at age of 2 years; cited from earlier work
VLBW infants [5] = settings: in the first year of life and at the age of 6; cited from earlier work
[6] = system: very preterm and/or VLBW children; test: Brain subcortical volumes by MRI at school age after enteral glutamine supplementation, days 3-30 of life; assay type: in vivo, human
Procedure: as §1, §2, §3, §4
Brain subcortical volumes were determined by Mill and calculated using FSL software “FAST” and corrected for age at Mill scan, gender and body weight for gestational age. […] This was the case for the brain stem, thalamus, putamen, caudate nucleus, hippocampus, globus pallidum, amygdale, nucleus accumbens and the corpus callosum volume.

[7] = glutamine supplemented versus control preterm group
[8] = mean, MRI at mean age 8.6 years, max 0.3 g/kg glutamine per day, days 3-30 of life
[9] = mean, MRI at mean age 8.6 years

NC(=O)CC[C@H](N)C(=O)O [Glutamine, L-glutamine]
Infectious morbidity (VLBL infants): lowers | Neuronal activation (fMRI) [1]: more similar to term infants | Effect size, cerebellum ([2]; control versus glutamine group): 0.41 | Effect size, grey matter ([2]; control versus glutamine group): 0.29 | Effect size, intracranial volume ([2]; control versus glutamine group): 0.48 | Effect size, white matter ([2]; control versus glutamine group): 0.54 | Cerebellum volume compared with preterm control group [2, 7]: tendency for an increase | Cortical brain volumes compared with preterm control group [2, 7]: higher than in the control group | Intracranial volume compared with preterm control group [2, 7]: tendency for an increase | White matter volume compared with preterm control group [2, 7]: significantly higher | Cerebellum volume [2, 8]: 110.89 cm^3 | Grey matter volume [2, 8]: 727.4 cm^3 | Intracranial volume [2, 8]: 1649.8 cm^3 | White matter volume [2, 8]: 496.5 cm^3 | WISC-III FSIQ [3]: 102 | Neurodevelopment outcome (VLBW infants [4]): no effect | Risk for atopic dermatitis (VLBW infants [5]): decreases | Effect size, amygdala ([6]; control versus glutamine group): 0.46 | Effect size, brain stem ([6]; control versus glutamine group): 0.54 | Effect size, caudate nucleus ([6]; control versus glutamine group): 0.10 | Effect size, corpus callosum ([6]; control versus glutamine group): 0.18 | Effect size, globus pallidum ([6]; control versus glutamine group): 0.48 | Effect size, hippocampus ([6]; control versus glutamine group): 0.47 | Effect size, nucleus accumbens ([6]; control versus glutamine group): 0.04 | Effect size, putamen ([6]; control versus glutamine group): 0.55 | Effect size, subcortical structures ([6]; control versus glutamine group): 0.50 | Effect size, thalamus ([6]; control versus glutamine group): 0.39 | Brain stem volume compared with preterm control group [6, 7]: significantly higher | Hippocampus volume compared with preterm control group [6, 7]: significantly higher | Subcortical volume compared with preterm control group [6, 7]: higher | Amygdala volume [6, 9]: 2.3 cm^3 | Brain stem volume [6, 9]: 18.9 cm^3 | Caudate Nucleus volume [6, 9]: 7.4 cm^3 | Corpus callosum [6, 9]: 535.7 mm^2 | Globus Pallidum volume [6, 9]: 3.5 cm^3 | Hippocampus volume [6, 9]: 7.2 cm^3 | Nucleus accumbens volume [6, 9]: 1.0 cm^3 | Putamen volume [6, 9]: 10.9 cm^3 | Subcortical structures volume [6, 9]: 66.5 cm^3 | Thalamus volume [6, 9]: 15.3 cm^3
